Test results reported in patent US8481600B2, “Formulation of aspirin that is stable and showing minimal hydrolysis for parenteral administration for the treatment of cardiovascular and other disease states” (Academic Pharmaceuticals, Inc., priority 2007, dated 2013).

Assay: Dissolution of ASA in buffers and solvent systems (clear solution or suspension)
Format: physicochemical
Conditions: for Dissolution of aspirin in buffer: aspirin 10 to 50 mg/ml in 10 ml; for Dissolution of aspirin in solvent system: aspirin up to 75 mg/ml
Procedure: Parenteral solutions comprising aspirin in buffers are typically prepared by mixing the required amount of aspirin in the buffer. The process is preferably carried out at room temperature, although other temperatures are acceptable for these preparations.
ASA (aspirin) was attempted to be dissolved in a number of solvent systems and then stability was determined if these solutions provided clear, colorless dissolution of ASA. In the following buffers aspirin was found riot to be soluble. These buffers are listed below: • 1.
In another series of experiments, dissolution of aspirin in solvents that are listed below were attempted to provide parenteral solutions suitable for intravenous administration comprising an effective amount of aspirin. […] The pH of the solutions ranged from 1.5 to 6.8. Ph adjustments were made using 1N NaOH solution. • 1. To water (2.0 ml), 1-propanol (0.5 ml) and Tween 20 (0.5 ml) was added to aspirin at a concentration level of up to 75 mg/ml. […] To water (2.0 ml), 1-propanol (0.5 ml) and Tween 40 (0.5 ml) was added to aspirin at a concentration level of up to 75 mg/ml. […] To water (2.0 ml), 1-propanol (0.5 ml) and Tween 60 (0.5 ml) was added to aspirin at a concentration level of up to 75 mg/ml. […] To water (2.0 ml), 1-propanol (0.5 ml) and Tween 80 (0.5 ml) was added to aspirin at a concentration level of up to 75 mg/ml. […] To water (2.0 ml), 1-propanol (0.5 ml) and PEG 300 was added to aspirin at a concentration level of up to 75 mg/ml. […] To water (2.0 ml), 1-propanol (0.5 ml) and PEG 400 was added to aspirin at a concentration level of up to 75 mg/ml. […] To water (2.0 ml), 1-propanol (0.5 ml) and PEG 600 was added to aspirin at a concentration level of up to 75 mg/ml. […] To water (2.0 ml), 1-propanol (0.5 ml) and glycerol was added to aspirin at a concentration level of up to 75 mg/ml. […] To water (2.0 ml), DMSO (1-2%) and Tween 20 was added to aspirin at a concentration level of up to 75 mg/ml. […] To water (2.0 ml), DMSO (1-2%) and Tween 40 was added to aspirin at a concentration level of up to 75 mg/ml. […] To water (2.0 ml), DMSO (1-2%) and Tween 60 was added to aspirin at a concentration level of up to 75 mg/ml. […] To water (2.0 ml), DMSO (1-2%) and Tween 80 was added to aspirin at a concentration level of up to 75 mg/ml. […] To glycerine (1 ml), 1-propanol (3 ml) and Tween 80 (0.2 ml) was added to aspirin at a concentration level of up to 75 mg/ml. […] To glycerine (1 ml), 1,2-propanol and Tween 80 (0.2 ml) was added to aspirin at a concentration level, of up to 75 mg/ml. […] To glycerine (1 ml), PEG 300 and Tween 80 (0.2 ml) was added to aspirin at a concentration of up to 75 mg/ml. […] To glycerine (1 ml), PEG 400 and Tween 80 (0.2 ml) was added to aspirin at a concentration of up to 75 mg/ml. […] To glycerine (1 ml), PEG 600 and Tween 80 (0.2 ml) was added to aspirin at a concentration of up to 75 mg/ml.
• 1. To N,N-Dimethylacetamide (NNDMA) (10 ml), aspirin was added at a concentration level of up to 500 mg/ml. […] To N,N-Dimethylacetamide (NNDMA) (10 ml) and ASA, glycerol (0.1 in 10 ml) added, Tween 20 (0.1 in 10 ml) were added. […] To N,N-Dimethylacetamide (NNDMA) (10 ml) and ASA, glycerol (0.1 in 10 ml), Tween 40 (0.1 in 10 ml) were added. […] To N,N-Dimethylacetamide (NNDMA) (10 ml) and ASA, glycerol (0.1 in 10 ml), Tween 60 (0.1 in 10 ml) were added. […] To N,N-Dimethylacetamide (NNDMA) (10 ml) and ASA, glycerol (0.1 in 10 ml), Tween 80 (0.1 in 10 ml) were added. […] To N,N-Dimethylacetamide (NNDMA) (10 ml) and ASA, glycerol (0.1 in 10 ml) were added. […] To N,N-Dimethylacetamide (NNDMA) (10 ml) and ASA, glycerol (0.1 in 10 ml), and DMSO (1-2%) were added. […] To N,N-Dimethylacetamide (NNDMA) (10 ml) and ASA, DMSO (1-2%) was added. […] The amount of aspirin present was greater than 98% at room temperature for 6 months. […]

Question: For CC(=O)Oc1ccccc1C(=O)O [ASA, aspirin], which “solubility in N,N-dimethylacetamide” value is on record?
Answer: readily soluble

Question: What about the “Dissolution of ASA in NNDMA and other diluents: appearance” value (“Dissolution of ASA … appearance” below) (1. N,N-Dimethylacetamide (NNDMA) (10 ml), aspirin up to 500 mg/ml) of the same compound?
Answer: Clear Purity

Question: And the “Dissolution of ASA … appearance” value (1. N,N-Dimethylacetamide (NNDMA) (10 ml), aspirin up to 500 mg/ml, listed as aspirin)?
Answer: clear solution

Question: And the “Dissolution of ASA … appearance” value (2. NNDMA (10 ml), Glycerol (0.1 in 10 ml), Tween 20 (0.1 in 10 ml))?
Answer: clear solution

Question: What about the “Dissolution of ASA … appearance” value (3. NNDMA (10 ml), Glycerol (0.1 in 10 ml), Tween 40 (0.1 in 10 ml)) of the same compound?
Answer: clear solution

Question: And the “Dissolution of ASA … appearance” value (4. NNDMA (10 ml), Glycerol (0.1 in 10 ml), Tween 60 (0.1 in 10 ml))?
Answer: clear solution

Question: And the “Dissolution of ASA … appearance” value (5. NNDMA (10 ml), Glycerol (0.1 in 10 ml), Tween 80 (0.1 in 10 ml))?
Answer: clear solution

Question: And the “Dissolution of ASA … appearance” value (6. NNDMA (10 ml), Glycerol (0.1 in 10 ml))?
Answer: clear solution

Question: And the “Dissolution of ASA … appearance” value (7. NNDMA (10 ml), Glycerol (0.1 in 10 ml), DMSO (1-2%))?
Answer: clear solution

Question: What about the “Dissolution of ASA … appearance” value (8. NNDMA (10 ml), DMSO (1.2%) (text: 1-2%)) of the same compound?
Answer: clear solution

Question: What about the “Dissolution of ASA in buffer” value (AMPSO buffer 0.05 M, aspirin 10 to 50 mg/ml in 10 ml (″ = not soluble), listed as aspirin) of the same compound?
Answer: suspension that was not clear

Question: What about the “Dissolution of ASA in buffer” value (AMPSO buffer 0.10 M, aspirin 10 to 50 mg/ml in 10 ml (″ = not soluble), listed as aspirin) of the same compound?
Answer: suspension that was not clear

Question: And the “Dissolution of ASA in buffer” value (Bicine buffer 0.10 M, aspirin 10 to 50 mg/ml in 10 ml (″ = not soluble), listed as aspirin)?
Answer: suspension that was not clear

Question: And the “Dissolution of ASA in buffer” value (Bis Tris buffer 0.05 M, aspirin 10 mg/ml to 50 mg/ml in 10 ml)?
Answer: 0.05 M not soluble

Question: What about the “Dissolution of ASA in buffer” value (Bis Tris buffer 0.05 M, aspirin 10 mg/ml to 50 mg/ml in 10 ml, listed as aspirin) of the same compound?
Answer: suspension that was not clear

Question: What about the “Dissolution of ASA in buffer” value (Bis Tris buffer 0.10 M, aspirin 10 mg/ml to 50 mg/ml in 10 ml) of the same compound?
Answer: 0.10 M not soluble

Question: What about the “Dissolution of ASA in buffer” value (Bis Tris buffer 0.10 M, aspirin 10 mg/ml to 50 mg/ml in 10 ml, listed as aspirin) of the same compound?
Answer: suspension that was not clear

Question: And the “Dissolution of ASA in buffer” value (CAPS buffer 0.05 M, aspirin 10 to 50 mg/ml in 10 ml (″ = not soluble), listed as aspirin)?
Answer: suspension that was not clear

Question: What about the “Dissolution of ASA in buffer” value (CAPS buffer 0.10 M, aspirin 10 to 50 mg/ml in 10 ml (″ = not soluble), listed as aspirin) of the same compound?
Answer: suspension that was not clear

Question: And the “Dissolution of ASA in buffer” value (HEPES buffer 0.05 M, aspirin 10 to 50 mg/ml in 10 ml (″ = not soluble), listed as aspirin)?
Answer: suspension that was not clear

Question: What about the “Dissolution of ASA in buffer” value (HEPES buffer 0.10 M, aspirin 10 to 50 mg/ml in 10 ml (″ = not soluble), listed as aspirin) of the same compound?
Answer: suspension that was not clear

Question: And the solubility (N,N-dimethylacetamide (NNDMA), organic solvent or mixture, thermodynamic from solid, read-out: concentration at which aspirin was found to be soluble in NNDMA)?
Answer: ≤ 500 mg/mL

Question: What about the “Dissolution of ASA in buffer” value (Saline (normal) 0.10 M, aspirin 10 to 50 mg/ml in 10 ml (″ = not soluble), listed as aspirin) of the same compound?
Answer: suspension that was not clear

Question: And the “Dissolution of ASA in buffer” value (TAPS buffer 0.05 M, aspirin 10 to 50 mg/ml in 10 ml (″ = not soluble), listed as aspirin)?
Answer: suspension that was not clear

Question: And the “Dissolution of ASA in buffer” value (TAPS buffer 0.10 M, aspirin 10 to 50 mg/ml in 10 ml (″ = not soluble), listed as aspirin)?
Answer: suspension that was not clear

Question: What about the “Dissolution of ASA in buffer” value (Tricine buffer 0.10 M, aspirin 10 to 50 mg/ml in 10 ml (″ = not soluble), listed as aspirin) of the same compound?
Answer: suspension that was not clear

Question: And the “Dissolution of aspirin in buffer” value (Tricine buffer (0.1M), list item 7)?
Answer: suspension that was not clear

Question: What about the “Dissolution of aspirin in buffer” value (bicine buffer (0.1M), list item 8) of the same compound?
Answer: suspension that was not clear

Question: What about the “Dissolution of aspirin in solvent system” value (glycerine (1 ml), 1,2-propanol, Tween 80 (0.2 ml)) of the same compound?
Answer: clear solution

Question: And the “Dissolution of aspirin in solvent system” value (glycerine (1 ml), 1-propanol (3 ml), Tween 80 (0.2 ml))?
Answer: clear solution

Question: What about the “Dissolution of aspirin in solvent system” value (glycerine (1 ml), PEG 300, Tween 80 (0.2 ml)) of the same compound?
Answer: clear solution

Question: What about the “Dissolution of aspirin in solvent system” value (glycerine (1 ml), PEG 400, Tween 80 (0.2 ml)) of the same compound?
Answer: clear solution

Question: And the “Dissolution of aspirin in solvent system” value (glycerine (1 ml), PEG 600, Tween 80 (0.2 ml))?
Answer: clear solution

Question: What about the “Dissolution of aspirin in buffer” value (sodium acetate (pH 6.5 and 3.8) buffer (0.1M), list item 6) of the same compound?
Answer: suspension that was not clear

Question: What about the “Dissolution of aspirin in buffer” value (sodium acetate pH 6.5 and 3.8 buffer (0.1M), list item 15) of the same compound?
Answer: suspension that was not clear

Question: What about the “Dissolution of aspirin in solvent system” value (water (2.0 ml), 1-propanol (0.5 ml), PEG 300) of the same compound?
Answer: clear solution

Question: And the “Dissolution of aspirin in solvent system” value (water (2.0 ml), 1-propanol (0.5 ml), PEG 400)?
Answer: clear solution

Question: What about the “Dissolution of aspirin in solvent system” value (water (2.0 ml), 1-propanol (0.5 ml), PEG 600) of the same compound?
Answer: clear solution

Question: What about the “Dissolution of aspirin in solvent system” value (water (2.0 ml), 1-propanol (0.5 ml), Tween 20 (0.5 ml)) of the same compound?
Answer: clear solution

Question: What about the “Dissolution of aspirin in solvent system” value (water (2.0 ml), 1-propanol (0.5 ml), Tween 40 (0.5 ml)) of the same compound?
Answer: clear solution

Question: And the “Dissolution of aspirin in solvent system” value (water (2.0 ml), 1-propanol (0.5 ml), Tween 60 (0.5 ml))?
Answer: clear solution

Question: And the “Dissolution of aspirin in solvent system” value (water (2.0 ml), 1-propanol (0.5 ml), Tween 80 (0.5 ml))?
Answer: clear solution

Question: What about the “Dissolution of aspirin in solvent system” value (water (2.0 ml), 1-propanol (0.5 ml), glycerol) of the same compound?
Answer: clear solution

Question: And the “Dissolution of aspirin in solvent system” value (water (2.0 ml), DMSO (1-2%), Tween 20)?
Answer: clear solution

Question: What about the “Dissolution of aspirin in solvent system” value (water (2.0 ml), DMSO (1-2%), Tween 40) of the same compound?
Answer: clear solution

Question: What about the “Dissolution of aspirin in solvent system” value (water (2.0 ml), DMSO (1-2%), Tween 60) of the same compound?
Answer: clear solution

Question: And the “Dissolution of aspirin in solvent system” value (water (2.0 ml), DMSO (1-2%), Tween 80)?
Answer: clear solution
